Tested on: PD-L1 on CD34+ cells
Assay: Prostaglandin library screening and FACS of PD-L1 on human CD34+ cells
Type: cell-based
Conditions: for PD-L1 expression by FACS analysis: CD34+ cells, 10 μM pulsed at 24 and 48 hours
Text: FIGS. 17A-17J show prostaglandins enhance PD-L1 expression on human CD34^+ cells. (FIG. 17A-17B) Results of screening of a prostaglandin small molecule library tested for the ability to upregulate PD-L1 (MFI) on CD34^+ cells obtained from T1D patients. The schematic of the experimental design is shown in (A). The 3-color coding shown in (FIG. 17B) represents lowest PD-L1 MFI values (blue), median PD-L1 MFI values (pink) and highest PD-L1 MFI values (red). (FIG. 17C-17D) Representative flow cytometric analysis and quantitative bar graph of PD-L1 expression on CD34^+ cells from T1D patients pre- and post-pharmacologic modulation with PGE2 as compared to CD34^+ cells obtained from healthy controls. (FIG. 17E) PD-L1 and CXCR4 expression (mRNA) fold change was quantified for CD34^+ cells pre- and post-modulation with PGE2. (FIG. 17F) Migration assay using CD34^+ cells pre- and post-modulation with PGE2. (FIG. 17G) Confocal imaging of CD34^+ cells pre- and post-modulation with PGE2, showing DAPI (in blue) and PD-L1 (in green) staining. 63× magnification. Scale bar, 50 (FIG. 17H) IDO-1 expression (mRNA) fold change was quantified for CD34^+ cells pre- and post-modulation with PGE2. (FIG. 17I-17J) Representative flow cytometric analysis (FIG. 17I) and quantitative bar graph (FIG. 17J) of PD-L1 expression on CD34^+ cells from T1D patients pre- and post-pharmacologic modulation with 4 small molecule PGE2 agonists. All data are expressed as mean±SEM. *P<0.05, **P<0.001. Abbreviations: MFI, mean fluorescence intensity.
Pharmacological modulation of human CD34+ cells. 1×105 of isolated human CD34+ HSPCs (purity 99%) were cultured in 200 μl of StemSpan SFEM II media (SEMCELL Technologies Inc., Cambridge, MA, USA), and each compound in the Prostaglandin Screening Library II (Cayman Chemicals, Ann Arbor, MI), was added individually at day 0 and at day 1 at a concentration of 10 μM as previously reported by the inventors and others (9, 21). In another assay, isolated CD34+ cells from freshly isolated human PBMCs or from cryopreserved PBMCs, and processed as described earlier, were cultured in the presence of a cocktail of cytokines containing: 10 μg/ml heparin (SEMCELL Technologies Inc., Cambridge, MA, USA), 10 ng/ml human SCF (Miltenyi Biotec, San Diego, CA), 20 ng/ml human TPO (Miltenyi Biotec, San Diego, CA), 10 ng/ml human FGF-1 (Miltenyi Biotec, San Diego, CA), 100 ng/ml IGFBP2 (R&D Systems, Inc., Minneapolis, MN), and 500 ng/ml Angptl3 (R&D Systems, Inc., Minneapolis, MN). PGE2 (PromoKine, PromoCell Gmbh, Germany) was added by pulsing the culture at 0, 24h, 72h and 6 days with 2 μl of diluted PGE2 (10 μM). Cells were cultured for 7 days at 37° C. in 5% CO2, and CD34+ cells were then subjected to FACS analysis and were run on a FACSCelesta™ (Becton Dickinson, Franklin Lakes, NJ). Data were analyzed using FlowJo software version 8.7.3 (Treestar, Ashland, OR). The different cytokines used here and their related concentration as well as the choice of the incubation timing was used as previously reported in the literature (22).
Prostaglandin library screening. PGE2 has been described as a small molecule known to enhance the homing and engraftment of HSPCs. It was therefore sought to screen all known types of prostaglandins using the Prostaglandin Screening Library II, which contains 64 small molecules. Each small molecule contained in the library was first screened for its capacity to upregulate PD-L1 in human CD34+ cells isolated from T1D patients (FIG. 17A-17B). CD34+ cells isolated from T1D patients were cultured in StemSpan SFEMII and pulsed with each PG (prostaglandin) small molecule contained in the aforementioned library at a concentration of 10 μM at 24 and 48h. Using FACS analysis, the MFI (mean fluorescence intensity) of PD-L1 expression was calculated following treatment with each small molecule used to modulate CD34+ cells as compared to untreated/unmodulated CD34+ cells (FIG. 17B). […]

SMILES | PD-L1 expression by FACS analysis | capacity to upregulate PD-L1 (MFI) in library screening (10 μM, CD34+ cells from T1D patients)
CCCCC[C@H](O)/C=C/[C@H]1[C@H](O)CC(=O)[C@@H]1C/C=C\CCCC(=O)O [PGE2, prostaglandin E2] | slight increase | –
CCCCC(C)(C)[C@H](O)/C=C/[C@H]1[C@H](O)CC(=O)[C@@H]1C/C=C\CCCC(=O)O [16,16-dimethyl PGE2] | robust upregulation | strongest capacity

— patent US11879137B2, “Treatment of type 1 diabetes and autoimmune diseases or disorders” (THE CHILDREN'S MEDICAL CENTER CORPORATION, priority 2017, dated 2024)
